In ChEMBL document CHEMBL3576799, “Aranciamycins I and J, Antimycobacterial Anthracyclines from an Australian Marine-Derived Streptomyces sp” (J Nat Prod, 2015) one finds IC50 and MIC data, which are given here for four molecules.

In brackets after ≈: the same amount, converted by molar mass.

The test system of this test is Mycobacterium tuberculosis. Kind of test: Antimycobacterial activity against Mycobacterium bovis BCG. The class given is functional, organism-based. Conditions: variant bovis BCG.
The molecule `CO[C@H]1[C@H](O[C@H]2C[C@](C)(O)C(=O)c3cc4c(c(O)c32)C(=O)c2c(O)cccc2C4=O)O[C@@H](C)[C@H](O)[C@H]1O` had an IC50 of 700 nM and an MIC of 10 µM (≈ 5.14 µg/mL).
The corresponding values for `CO[C@H]1[C@H](O[C@@H]2c3c(cc4c(c3O)C(=O)c3c(O)cccc3C4=O)C(=O)[C@@](C)(O)[C@H]2OC)O[C@@H](C)[C@H](O)[C@H]1O` [ARANCIAMYCIN] are 1700 nM and 30 µM (≈ 16.3 µg/mL).
With `CO[C@H]1[C@H](O[C@H]2C[C@](C)(O)Cc3cc4c(c(O)c32)C(=O)c2c(O)cccc2C4=O)O[C@@H](C)[C@H](O)[C@H]1O`, the IC50 turned out to be 1100 nM and the lowest concentration to inhibit growth (MIC) was 30 µM (≈ 15 µg/mL).
The matching figures for `C[C@@H]1O[C@@H](O[C@H]2C[C@](C)(O)Cc3cc4c(c(O)c32)C(=O)c2c(O)cccc2C4=O)[C@H](O)[C@H](O)[C@H]1O`: 800 nM and 10 µM (≈ 4.86 µg/mL).
